Measured values reported in patent US20090252708A1, “Biotherapeutic compositions comprising probiotic escherichia coli and uses thereof” (Biobalance LLC, priority 2006, published 2009).

What was measured:
[1] = test system: distal colon histological damage; experiment: Colonic histology score in DSS colitis; assay type: in vivo, C57BL/6 mice; conditions: day 13, M-17 5×10^9 CFU/ml, metronidazole 40 mg/kg
Experimental: Distal colonic specimens were processed by standard methods and embedded in paraffin by the Histology core facility at the Penn State University College of Medicine. Microscope slides were coded. Using coded hematoxylin-eosin H&E slides (1 slide per mouse) from the distal colon, colonic histology scores were determined from six different areas on the slide (Williams, 2001; Krieglstein, 2001). A mean total histology score value was calculated for each mouse.
Total Histology Scores were determined by multiplying the percent involvement for each of the 3 different histological features by the area of involvement. Using this scoring system, the minimal score=0 and the maximal score=40. The percent involvement was determined with a 25 mm ocular grid attached to an Olympus CH light microscope. The histological evaluation was performed at a 400× magnification.

[2] = test system: IL-10; experiment: Colonic cytokine ELISA in DSS colitis: IL-10; assay type: in vivo, C57BL/6 mice; conditions: day 13, M-17 5×10^9 CFU/ml, metronidazole 40 mg/kg
Experimental: (§1) On day 13 of the study, animals were euthanized by exposure to carbon dioxide. The colon was rapidly removed and the total colon length was determined to the nearest 0.1 cm. Typically, a 2.5 cm segment of distal colon was fixed in 10% buffered formalin, for a subsequent histological evaluation (see below). The adjacent 2.5 cm segment of colon was weighed and then frozen in liquid nitrogen. This segment of colon was used for the evaluation of colonic MPO, as well as colonic cytokine levels.
(§2) The supernatant fraction from the colonic homogenate (see above) was aliquoted into appropriate test tubes and frozen at −70° C. Subsequently, the supernatants were used to measure relevant pro-inflammatory cytokines [e.g., IFN-γ, IL-1β, TNF-α, IL-12] using commercially available mouse ELISA kits (Fitzpatrick 2000). The data was typically expressed as pg/2.5 cm of colon.

[3] = test system: IL-12; experiment: Colonic cytokine ELISA in DSS colitis: IL-12; assay type: in vivo, C57BL/6 mice; conditions: day 13, M-17 5×10^9 CFU/ml, metronidazole 40 mg/kg
Experimental: as §1, §2

[4] = test system: TNF-α, IL-1β and IL-6; experiment: RAW 264.7 macrophages: cytokine secretion, cytokines not told apart; assay type: cell-based, mouse; conditions: metronidazole 50 μg/ml; heat-killed M-17 1×10^8 CFU/ml; conditioned media 10% (v/v)
Experimental: The RAW 264.7 mouse macrophage cell line was obtained from American Type Culture Collection (ATCC). RAW 264.7 cells were grown in Dulbecco's Modified Eagle's Medium (DMEM) containing 10% FBS (Fetal Bovine Serum). The lipopolysaccharide (LPS) stimulation studies were conducted at a cell density of 2×10^6/ml. […] For the NF-κB p65 measurement, nuclear extracts were obtained from cells either immediately (0 hours) or 3 hours after LPS-stimulation. A protein determination of the nuclear extracts was done with the Bio-Rad protein assay (Bio-Rad Laboratories). For the p65 analysis, 10 μg of protein was utilized per sample. The nuclear binding of p65 was measured with the TransAM™ NF-κB p65 assay kit, according to the manufacturer's instructions.
For the cytokine secretion experiments, after 0 or 4 hours of LPS exposure, the culture medium was collected for the measurement of cytokines (TNF-α, IL-1β and IL-6) by ELISA (Pierce-Endogen), according to the manufacturer's directions. […] The media was then collected and centrifuged at 10,000 RPM for 10 minutes. Next, the CM was passed through a 0.22 micron filter prior to use in cytokine secretion experiments. […] The pellet was then resuspended in a sufficient quantity of saline to achieve a final concentration of 1×10^8 CFU/ml. […] In some experiments, we also evaluated whether metronidazole ([…]) could inhibit cytokine secretion.

[5] = test system: individual isolates of the aerobic and facultative gram positive and gram negative flora; experiment: Metronidazole ex vivo on fecal isolates; assay type: cell-based; conditions: ex vivo at 50 μg/ml
[6] = test system: DSS-induced colitis; experiment: Acute DSS-induced colitis in mice: DAI, body weight, stools, colon length and weight, tolerability; assay type: in vivo, C57BL/6 mice; conditions: for DAI (table title: DAT Time Course Data): DSS days 7-13; for mice with weight loss: weight loss defined as >1%
Experimental: Mice were dosed once daily for a period of 13 days by oro-gastric gavage with a 20 gauge, one-inch long needle (Popper & Sons, New Hyde Park, N.Y.). Dosages comprised either 40 mg/kg dose of metronidazole or 5×10^9 CFU/ml probiotic solution. A 0.6% saline solution was administered as a control.
Disease Activity Indices (DAIs) were determined either daily or on alternate days, by evaluation of stool consistency and occult blood in the stool and weight loss on a standardized severity scale, as shown in Table 1 (Murthy, 1993).
Disease Activity Index (DAI) Calculation: The individual scores for weight loss, stool consistency, and occult blood/bleeding are determined, and divided by 3 to determine a mean DAI for the mouse. For example, if an animal lost 12% of the initial body weight [score=3], had evidence of diarrhea [score=4], and evidence of gross rectal bleeding [score=4], the mean DAI would be 3±4±4=11/3=3.7
In Example 3, weight loss was not very evident in the DSS-treated mice. Therefore, a modified DAI calculation was used. The modfied DAIs were calculated similarly to the DAIs of Table 1, but only the stool consistency and occult blood components were used for this determination.
Colitis was then induced by providing the mice with a solution of 2% DSS (w/v) dissolved in the filtered water for days 7 to 13 of the study. One group of mice received water without DSS. Water consumption and body weight were recorded throughout the study.
as §1
Control mice received 0.6% saline.

[7] = test system: IFN-γ; experiment: Colonic cytokine ELISA in DSS colitis: IFN-γ; assay type: in vivo, C57BL/6 mice; conditions: day 13, M-17 5×10^9 CFU/ml, metronidazole 40 mg/kg
Experimental: as §1, §2

[8] = test system: E. coli ATCC 202226; experiment: Kirby-Bauer disc diffusion; assay type: cell-based, Escherichia coli; conditions: 50 μg metronidazole paper disc, Mueller-Hinton Agar, overnight
Experimental: The Kirby-Bauer disc diffusion method was used to determine the relative sensitivity of E. coli ATCC 202226 to metronidazole (Bauer, 1966). Five colonies of E. coli ATCC 202226 were picked from trypticase soy agar (TSA) using a sterile inoculation loop and suspended in trypticase soy broth (TSB). The TSB culture was grown for 6 hours at 37° C./200 rpm. This culture was diluted in TSB to match a 0.5 McFarland turbidity standard prior to saturating a sterile cotton swab and streaking the culture onto the surface of a Mueller-Hinton Agar plate. After allowing the surface of the plate to dry, a 50 μg metronidazole paper disc (Oxoid) was placed on the lawn. The plate was incubated overnight and the zone of inhibition was recorded.

[9] = test system: colonic MPO; experiment: Colonic myeloperoxidase (TMB method) in DSS colitis; assay type: in vivo, C57BL/6 mice; conditions: day 13, M-17 5×10^9 CFU/ml, metronidazole 40 mg/kg
Experimental: as §1
The 2.5 segment of colon was homogenized for about 30 seconds in 0.5 ml of molecular biology grade distilled water, using a hand-held tissue homogenizer (TissueMiser) from Fisher Scientific (Pittsburgh, Pa.). The homogenate was then centrifuged at 10,000 RPM at 4° C. for 15 minutes. The pellet was resuspended in hexadecyltrimethylammonium bromide (HTAB) buffer (pH 6.0), for the measurement of colonic MPO. MPO was assayed by the tetramethylbenzidine (TMB) method (Fitzpatrick, 2000).

[10] = test system: IL-1β; experiment: Colonic cytokine ELISA in DSS colitis: IL-1β; assay type: in vivo, C57BL/6 mice; conditions: day 13, M-17 5×10^9 CFU/ml, metronidazole 40 mg/kg
Experimental: as §1, §2

[11] = after single, intravenous infusion; cited from earlier work
[12] = test system: IL-6; experiment: Colonic cytokine ELISA in DSS colitis: IL-6; assay type: in vivo, C57BL/6 mice; conditions: day 13, M-17 5×10^9 CFU/ml, metronidazole 40 mg/kg
Experimental: as §1, §2

[13] = day 13, M-17 5×10^9 CFU/ml, metronidazole 40 mg/kg, DSS

Cc1ncc([N+](=O)[O-])n1CCO [metronidazole, 1-(beta-hydroxyethyl)-2-methyl-5-nitroimidazole]
Histology Score (0-40) [1]: 12.4 ± 0.9 | IL-10 [2]: 91 ± 7 pg/2.5 cm | IL-12 [3]: 32 ± 2 pg/2.5 cm | LPS-stimulated cytokine secretion [4]: did not reduce | inhibition of individual isolates [5]: did not inhibit | reduction in mean DAI score compared with DSS-treated mice that received vehicle ([6]; day 13, M-17 5×10^9 CFU/ml, metronidazole 40 mg/kg): 47.4% | Colon length [6, 13]: 6.8±0.2 cm | Colon wt. [6, 13]: 70 ± 3 mg/2.5 cm | Colon length ([6]; day 13, M-17 5×10^9 CFU/ml, metronidazole 40 mg/kg, DSS, listed as Metro): 6.8 ± 0.2 cm | Modified DAI (0-4) ([6]; day 13, stool consistency and occult blood only, M-17 5×10^9 CFU/ml, metronidazole 40 mg/kg): 1.0 ± 0.2 | DAI (table title: DAT Time Course Data) ([6]; study day 0, M-17 5×10^9 CFU/ml, metronidazole 40 mg/kg): 0 ± 0 | DAI (table title: DAT Time Course Data) ([6]; study day 2, M-17 5×10^9 CFU/ml, metronidazole 40 mg/kg): 0 ± 0 | DAI (table title: DAT Time Course Data) ([6]; study day 4, M-17 5×10^9 CFU/ml, metronidazole 40 mg/kg): 0.3 ± 0.2 | DAI (table title: DAT Time Course Data) ([6]; study day 6, M-17 5×10^9 CFU/ml, metronidazole 40 mg/kg): 0.2 ± 0.1 | DAI (table title: DAT Time Course Data) ([6]; study day 8, M-17 5×10^9 CFU/ml, metronidazole 40 mg/kg): 0.1 ± 0.1 | DAI (table title: DAT Time Course Data) ([6]; study day 10, M-17 5×10^9 CFU/ml, metronidazole 40 mg/kg): 0.7 ± 0.2 | DAI (table title: DAT Time Course Data) ([6]; study day 12, M-17 5×10^9 CFU/ml, metronidazole 40 mg/kg): 0.6 ± 0.2\ | DAI (table title: DAT Time Course Data) ([6]; study day 13, M-17 5×10^9 CFU/ml, metronidazole 40 mg/kg): 1.0 ± 0.2\ | mice with weight loss ([6]; DSS-phase (days 7-13)): 30% | mice with weight loss ([6]; figures given before those of the DSS-phase): 50% | IFN-γ [7]: 56 ± 28 pg/2.5 cm | zone of inhibition [8]: No zone of inhibition | MPO [9]: 4.3 ± 1.0 U/2.5 cm | IL-1β [10]: 359 ± 85 pg/2.5 cm | half-life [11]: 7.3 ± 1.0 h | IL-6 [12]: 372 ± 75 pg/2.5 cm
